# Assay results: patent US5877030A, “Process for creating molecular diversity and novel protease inhibitors produced thereby” (priority 1995, dated 1999)
# Experiments:
# [1] = rat model; Sobajima et al.; cited from earlier work
# [2] = molecular target: T1, trypsin (Bos taurus, UniProt P00760); assay: Ki determination on trypsin (BAPA substrate, Michaelis-Menten / reciprocal plots); assay type: biochemical; details: for Ki: preliminary investigations
# T1 sequence (P00760 24-246): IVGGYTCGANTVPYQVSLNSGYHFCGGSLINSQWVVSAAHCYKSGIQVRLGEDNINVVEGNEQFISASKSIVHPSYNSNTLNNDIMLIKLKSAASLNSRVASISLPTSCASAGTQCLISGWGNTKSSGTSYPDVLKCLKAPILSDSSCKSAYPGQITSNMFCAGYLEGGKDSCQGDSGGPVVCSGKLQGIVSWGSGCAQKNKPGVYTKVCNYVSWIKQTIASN
# Description: The rate of the trypsin catalyzed reaction was determined by monitoring the increase in absorbance at 410 nm over time. In all measurements 5% (v/v) of dimethylsulfoxide (DMSO) was added to solubilize the libraries. For a typical assay, 50 μL of a library solution in DMSO and 10 μL of the trypsin stock solution (2.5 mg trypsin in 25 mL 0.001M HCl) were added to 5 mL of buffer (0.5M Tris-HCl, 0.16M CaCl21 pH 8.2) at 25° C. In regard to FIG. 19, the library solutions used for Charts A and B contained 2.5 mg in 50 μL DMSO; the library solution for Chart C contained 1 mg in 50 AL DMSO and the library solution for Chart D contained 0.5 mg in 50 μL DMSO.
# After incubating for 10 min., the cloudy mixture was centrifuged, 0.4 mL of the clear supernatant was removed and diluted with 400 μL of buffer in a disposable 1.5 mL UV cuvette. Then, 50 μL of the BAPA (defined below) stock solution (50 mg BAPA in 5 mL DMSO) was added and the increase in absorbance at 410 nm was monitored. The trypsin activity was compared to a reference cuvette without added library material (B).
# Methods for determining the Ki of an enzyme inhibitor would be known to those of ordinary skill in the art. (See also "Enzyme Kinetics & Behavior, Analysis of Rapid Equilibrium, and Steady State Enzyme Systems", ed. Segel, John Wiley & Sons, Inc., N.Y., N.Y. (1993), the contents of which are incorporated herein by reference.) A summary of the procedure used to obtain the Ki value for compound of Formula V.
# [3] = tested on: thrombin; assay: Specificity against other proteases such as thrombin (initial experiments); assay type: biochemical
# [4] = molecular target: T1, trypsin; assay: Trypsin inhibitor assay (trypsin-catalyzed hydrolysis of BAPA, absorbance at 410 nm), iterative screening of libraries; assay type: biochemical; details: comparison in words
# Description: Each sub-library 1A-1F was tested for its ability to inhibit trypsin activity and the percent trypsin activity was correlated to the specific tool molecule group (see Table 3) that had been omitted during synthesis of the sub-library being assayed.
"mode of inhibition of trypsin ([2]; 1/velocity vs. 1/(substrate concentration), five inhibitor concentrations 1×10^-6 M to 1×10^-4 M)",Ki ([2]; 'in the 10 μM range') [µM],"Ki ([2]; trypsin 7.4×10^-8 M, BAPA 2×10^-4 M to 7×10^-3 M, inhibitor 1×10^-6 M to 1×10^-4 M) [µM]",Structure (SMILES),treatment of severe acute pancreatitis [1],"interference with other proteases, such as thrombin [3]",activity relative to structural isomer Formula VI [4]
–,–,–,CS(=O)(=O)O.N=C(N)Nc1ccc(C(=O)Oc2ccc(SCCN3C(=O)CCC3=O)cc2)cc1 [4-(2-succinimidoethylthio)-phenyl 4-guanidinobenzoate methane sulfonate],treating severe acute pancreatitis,–,–
competitive inhibitor of trypsin,~10,~9,CC[C@H](C)[C@H](NC(=O)c1cc(C(=O)N2CCC[C@H]2C(=O)O)cc2c1Oc1c(C(=O)N[C@@H](CCCCN)C(=O)OC)cc(C(=O)N[C@H](C(=O)O)C(C)C)cc1C2(C)C)C(=O)O [Formula V],–,"does not interfere with other proteases, such as thrombin",significantly more active than its structural isomer Formula VI
